Source: patent publication US9193733B2, “Piperidinylcyclobutyl substituted pyrrolopyridine and pyrrolopyrimidine derivatives as JAK inhibitors” (Incyte Corporation, priority 2012, dated 2015)

Experiments:
Format in all cases: biochemical
[1] = target: T1, human JAK2 (a.a. 828-1132) catalytic domain (Homo sapiens, UniProt O60674); test: In vitro JAK kinase assay (HTRF, phosphorylation of a biotinylated peptide), JAK2; settings: 1 mM ATP
T1 construct: human JAK1 (a.a. 837-1142) and JAK2 (a.a. 828-1132); His tag (N); made in house; host or cells: insect cells (baculovirus)
Experimental: (§1) Compounds herein were tested for inhibitory activity of JAK targets according to the following in vitro assay described in Park et al., Analytical Biochemistry 1999, 269, 94-104. The catalytic domains of human JAK1 (a.a. 837-1142) and JAK2 (a.a. 828-1132) with an N-terminal His tag were expressed using baculovirus in insect cells and purified. The catalytic activity of JAK1 and JAK2 was assayed by measuring the phosphorylation of a biotinylated peptide. The phosphorylated peptide was detected by homogenous time resolved fluorescence (HTRF). IC50s of compounds were measured for each kinase in the 40 microL reactions that contain the enzyme, ATP and 500 nM peptide in 50 mM Tris (pH 7.8) buffer with 100 mM NaCl, 5 mM DTT, and 0.1 mg/mL (0.01%) BSA. For the 1 mM IC50 measurements, ATP concentration in the reactions was 1 mM. Reactions were carried out at room temperature for 1 hour and then stopped with 20 μL 45 mM EDTA, 300 nM SA-APC, 6 nM Eu-Py20 in assay buffer (Perkin Elmer, Boston, Mass.). Binding to the Europium labeled antibody took place for 40 minutes and HTRF signal was measured on a Fusion plate reader (Perkin Elmer, Boston, Mass.). See Table A for data related to compounds of the Examples (at 1 mM). Data is indicated as ranges: <20 nM (+), 20 to <150 nM (++), 150 to 500 nM (+++).

[2] = test system: human JAK1 (a.a. 837-1142) catalytic domain; test: In vitro JAK kinase assay (HTRF, phosphorylation of a biotinylated peptide), JAK1; settings: ratio of JAK2 IC50 to JAK1 IC50, 1 mM ATP
Experimental: as §1

[3] = target: T2, human JAK1 (a.a. 837-1142) catalytic domain (Homo sapiens, UniProt P23458); test: as above; settings: 1 mM ATP
T2 construct: human JAK1 (a.a. 837-1142) and JAK2 (a.a. 828-1132); His tag (N); made in house; host or cells: insect cells (baculovirus)
Experimental: as §1

T2 sequence (P23458 849-1154): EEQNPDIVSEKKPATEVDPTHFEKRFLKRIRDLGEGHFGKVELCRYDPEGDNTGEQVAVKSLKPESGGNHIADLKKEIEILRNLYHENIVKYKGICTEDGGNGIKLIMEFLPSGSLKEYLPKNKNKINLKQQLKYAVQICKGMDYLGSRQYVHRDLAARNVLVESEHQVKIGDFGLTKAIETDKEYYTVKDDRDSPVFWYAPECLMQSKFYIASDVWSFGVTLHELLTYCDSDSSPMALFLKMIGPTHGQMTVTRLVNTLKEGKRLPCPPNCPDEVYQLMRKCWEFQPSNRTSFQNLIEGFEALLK
T1 sequence (O60674 828-1132): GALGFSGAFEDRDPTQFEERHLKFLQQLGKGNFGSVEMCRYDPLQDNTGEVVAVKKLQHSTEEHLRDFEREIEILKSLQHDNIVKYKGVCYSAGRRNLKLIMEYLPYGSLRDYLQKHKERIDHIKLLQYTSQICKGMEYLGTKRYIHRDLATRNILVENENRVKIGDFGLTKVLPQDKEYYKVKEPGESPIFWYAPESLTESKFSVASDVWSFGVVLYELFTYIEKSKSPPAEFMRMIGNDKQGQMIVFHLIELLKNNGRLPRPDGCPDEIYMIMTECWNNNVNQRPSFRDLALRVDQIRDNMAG

IC50 [1]	JAK2/JAK1 [2]	IC50 [3]	SMILES
20 to 150 nM	>10	< 20 nM	N#CC[C@]1(n2cc(-c3ncnc4[nH]ccc34)cn2)C[C@H](N2CCC(Oc3cc(CN4CC(C#N)C4)cc(C(F)(F)F)n3)CC2)C1 [Example 4, 1-{[2-[(1-{trans-3-(cyanomethyl)-3-[4-(7H-pyrrolo[2,3-d]pyrimidin-4-yl)-1H-pyrazol-1-yl]cyclobutyl}piperidin-4-yl)oxy]-6-(trifluoromethyl)pyridin-4-yl]methyl}azetidine-3-carbonitrile]
20 to 150 nM	>10	< 20 nM	CCNCc1cc(NC2CCN([C@H]3C[C@](CC#N)(n4cc(-c5ncnc6[nH]ccc56)cn4)C3)CC2)nc(C(F)(F)F)n1 [Example 28, {trans-3-(4-{[6-[(ethylamino)methyl]-2-(trifluoromethyl)pyrimidin-4-yl]amino}piperidin-1-yl)-1-[4-(7H-pyrrolo[2,3-d]pyrimidin-4-yl)-1H-pyrazol-1-yl]cyclobutyl}acetonitrile]
20 to 150 nM	>10	< 20 nM	CCNCc1cc(N(C)C2CCN([C@H]3C[C@](CC#N)(n4cc(-c5ncnc6[nH]ccc56)cn4)C3)CC2)nc(C(F)(F)F)c1 [Example 48, {trans-3-{4-[[4-[(ethylamino)methyl]-6-(trifluoromethyl)pyridin-2-yl](methyl)amino]piperidin-1-yl}-1-[4-(7H-pyrrolo[2,3-d]pyrimidin-4-yl)-1H-pyrazol-1-yl]cyclobutyl}acetonitrile]
150 to 500 nM	>10	< 20 nM	N#CC[C@]1(n2cc(-c3ncnc4[nH]ccc34)cn2)C[C@H](N2CCC(Nc3cc(CN4CCC(F)(F)C4)cc(C(F)(F)F)n3)CC2)C1 [Example 36, {trans-3-(4-{[4-[(3,3-difluoropyrrolidin-1-yl)methyl]-6-(trifluoromethyl)pyridin-2-yl]amino}piperidin-1-yl)-1-[4-(7H-pyrrolo[2,3-d]pyrimidin-4-yl)-1H-pyrazol-1-yl]cyclobutyl}acetonitrile]
20 to 150 nM	>10	< 20 nM	COCc1cc(NC2CCN([C@H]3C[C@](CC#N)(n4cc(-c5ncnc6[nH]ccc56)cn4)C3)CC2)nc(C(F)(F)F)c1 [Example 45, {trans-3-(4-{[4-(methoxymethyl)-6-(trifluoromethyl)pyridin-2-yl]amino}piperidin-1-yl)-1-[4-(7H-pyrrolo[2,3-d]pyrimidin-4-yl)-1H-pyrazol-1-yl]cyclobutyl}acetonitrile]
20 to 150 nM	>10	< 20 nM	N#CC[C@]1(n2cc(-c3ncnc4[nH]ccc34)cn2)C[C@H](N2CCC(Oc3cc(CN4CC5(COC5)C4)cc(C(F)(F)F)n3)CC2)C1 [Example 6, {trans-3-(4-{[4-(2-oxa-6-azaspiro[3.3]hept-6-ylmethyl)-6-(trifluoromethyl)pyridin-2-yl]oxy}piperidin-1-yl)-1-[4-(7H-pyrrolo[2,3-d]pyrimidin-4-yl)-1H-pyrazol-1-yl]cyclobutyl}acetonitrile]
20 to 150 nM	>10	< 20 nM	N#CC[C@]1(n2cc(-c3ncnc4[nH]ccc34)cn2)C[C@H](N2CCC(Oc3cc(CCO)cc(C(F)(F)F)n3)CC2)C1 [Example 20, {trans-3-(4-{[4-(2-hydroxyethyl)-6-(trifluoromethyl)pyridin-2-yl]oxy}piperidin-1-yl)-1-[4-(7H-pyrrolo[2,3-d]pyrimidin-4-yl)-1H-pyrazol-1-yl]cyclobutyl}acetonitrile]
20 to 150 nM	>10	< 20 nM	C[C@@H](CO)NCc1cc(OC2CCN([C@H]3C[C@](CC#N)(n4cc(-c5ncnc6[nH]ccc56)cn4)C3)CC2)nc(C(F)(F)F)c1 [Example 1, {trans-3-(4-{[4-({[(1S)-2-hydroxy-1-methylethyl]amino}methyl)-6-(trifluoromethyl)pyridin-2-yl]oxy}piperidin-1-yl)-1-[4-(7H-pyrrolo[2,3-d]pyrimidin-4-yl)-1H-pyrazol-1-yl]cyclobutyl}acetonitrile]
20 to 150 nM	>10	< 20 nM	N#CC[C@]1(n2cc(-c3ncnc4[nH]ccc34)cn2)C[C@H](N2CCC(Nc3cc(CN4CC[C@H](O)C4)cc(C(F)(F)F)n3)CC2)C1 [Example 43, {trans-3-(4-{[4-{[(3S)-3-hydroxypyrrolidin-1-yl]methyl}-6-(trifluoromethyl)pyridin-2-yl]amino}piperidin-1-yl)-1-[4-(7H-pyrrolo[2,3-d]pyrimidin-4-yl)-1H-pyrazol-1-yl]cyclobutyl}acetonitrile]
20 to 150 nM	>10	< 20 nM	N#CC[C@]1(n2cc(-c3ncnc4[nH]ccc34)cn2)C[C@H](N2CCC(Oc3cc(Cn4cnnc4)cc(C(F)(F)F)n3)CC2)C1 [Example 24, [trans-1-[4-(7H-pyrrolo[2,3-d]pyrimidin-4-yl)-1H-pyrazol-1-yl]-3-(4-{[4-(4H-1,2,4-triazol-4-ylmethyl)-6-(trifluoromethyl)pyridin-2-yl]oxy}piperidin-1-yl)cyclobutyl]acetonitrile]
20 to 150 nM	>10	< 20 nM	C[C@H](O)CNCc1cc(OC2CCN([C@H]3C[C@](CC#N)(n4cc(-c5ncnc6[nH]ccc56)cn4)C3)CC2)nc(C(F)(F)F)c1 [Example 15, {trans-3-(4-{[4-({[(2S)-2-hydroxypropyl]amino}methyl)-6-(trifluoromethyl)pyridin-2-yl]oxy}piperidin-1-yl)-1-[4-(7H-pyrrolo[2,3-d]pyrimidin-4-yl)-1H-pyrazol-1-yl]cyclobutyl}acetonitrile]
20 to 150 nM	>10	< 20 nM	N#CC[C@]1(n2cc(-c3ncnc4[nH]ccc34)cn2)C[C@H](N2CCC(Nc3cc(CO)cc(C(F)(F)F)n3)CC2)C1 [Example 31, {trans-3-(4-{[4-(hydroxymethyl)-6-(trifluoromethyl)pyridin-2-yl]amino}piperidin-1-yl)-1-[4-(7H-pyrrolo[2,3-d]pyrimidin-4-yl)-1H-pyrazol-1-yl]cyclobutyl}acetonitrile]
20 to 150 nM	>10	< 20 nM	CN(CCO)Cc1cc(OC2CCN([C@H]3C[C@](CC#N)(n4cc(-c5ncnc6[nH]ccc56)cn4)C3)CC2)nc(C(F)(F)F)c1 [Example 17, {trans-3-(4-{[4-{[(2-hydroxyethyl)(methyl)amino]methyl}-6-(trifluoromethyl)pyridin-2-yl]oxy}piperidin-1-yl)-1-[4-(7H-pyrrolo[2,3-d]pyrimidin-4-yl)-1H-pyrazol-1-yl]cyclobutyl}acetonitrile]
20 to 150 nM	>10	< 20 nM	N#CC[C@]1(n2cc(-c3ncnc4[nH]ccc34)cn2)C[C@H](N2CCC(Nc3cc(CN4CC[C@@H](O)C4)cc(C(F)(F)F)n3)CC2)C1 [Example 44, {trans-3-(4-{[4-{[(3R)-3-hydroxypyrrolidin-1-yl]methyl}-6-(trifluoromethyl)pyridin-2-yl]amino}piperidin-1-yl)-1-[4-(7H-pyrrolo[2,3-d]pyrimidin-4-yl)-1H-pyrazol-1-yl]cyclobutyl}acetonitrile]
20 to 150 nM	>10	< 20 nM	CC1(C)CN(Cc2cc(NC3CCN([C@H]4C[C@](CC#N)(n5cc(-c6ncnc7[nH]ccc67)cn5)C4)CC3)nc(C(F)(F)F)c2)C1 [Example 35, {trans-3-(4-{[4-[(3,3-dimethylazetidin-1-yl)methyl]-6-(trifluoromethyl)pyridin-2-yl]amino}piperidin-1-yl)-1-[4-(7H-pyrrolo[2,3-d]pyrimidin-4-yl)-1H-pyrazol-1-yl]cyclobutyl}acetonitrile]
20 to 150 nM	>10	< 20 nM	N#CC[C@]1(n2cc(-c3ncnc4[nH]ccc34)cn2)C[C@H](N2CCC(Oc3cc(CNC4CCOCC4)cc(C(F)(F)F)n3)CC2)C1 [Example 5, [trans-1-[4-(7H-pyrrolo[2,3-d]pyrimidin-4-yl)-1H-pyrazol-1-yl]-3-(4-{[4-[(tetrahydro-2H-pyran-4-ylamino)methyl]-6-(trifluoromethyl)pyridin-2-yl]oxy}piperidin-1-yl)cyclobutyl]acetonitrile]
20 to 150 nM	>10	< 20 nM	N#CC[C@]1(n2cc(-c3ncnc4[nH]ccc34)cn2)C[C@H](N2CCC(Oc3cc(CNC4COC4)cc(C(F)(F)F)n3)CC2)C1 [Example 11, {trans-3-(4-{[4-[(oxetan-3-ylamino)methyl]-6-(trifluoromethyl)pyridin-2-yl]oxy}piperidin-1-yl)-1-[4-(7H-pyrrolo[2,3-d]pyrimidin-4-yl)-1H-pyrazol-1-yl]cyclobutyl}acetonitrile]
